Measured values reported in publication PMC12394750, “2H-1,4-Benzoxazin-3(4H)-one linked 1,2,3-triazole derivatives and their study on inducing DNA damage in tumor cells” (Frontiers in Pharmacology, 2025).

How the values were obtained:
[1] = system: Huh-7 (hepatocellular carcinoma); test: CCK-8 cell viability / IC50, Huh-7; assay type: cell-based, human; settings: 72 h; for IC50 / viability at 50 µM: Homo sapiens, Huh-7; for IC50: CCK-8 dose-response; for Activity against Huh-7 cells (in words) / viability at 50 µM: 50 μM, CCK-8
Procedure: (§1) To assess the cytotoxic potential of the newly synthesized compounds c1–c20, a panel of human tumor cell lines—including Huh-7 (hepatocellular carcinoma), MCF-7 (breast cancer), and A549 (lung cancer)—was treated with each compound at a concentration of 50 μM for 72 h. Cell viability and cytotoxicity were evaluated using the CCK-8 assay.
(§2) Cells were cultured in DMEM or RPMI 1640 medium with 10% FBS and 1% penicillin/streptomycin at 37 °C and 5% CO2. A CCK-8 assay was performed with several human cancer cell lines, including A549, Huh-7, MCF-7, HCT-116, and SKOV3, according to the instructions. Cells were plated at a density of 1,000–3,000 cells per well in a 96-well plate. After 24-h incubation, cells were treated with 40 μM compounds for 48 h or 50 μM compounds for 72 h. Cell viability was measured by adding 10 μL per well of CCK-8 reagent, which was dissolved in the cell culture medium, for 1 hour. Absorbance was taken at 450 nm using a microplate reader. The IC50 values of the compounds were further determined. Cells were seeded in a 96-well plate at a density of 1 × 10^3 cells/well. After adhering overnight, cells treated with […] concentrations (10 μM, 20 μM, 40 µM, or 80 μM) were used to draw the dose–response curve, and IC50 values were calculated by GraphPad Prism software. The CCK-8 assay was performed in triplicate, and each experiment was repeated at least three times. The results were expressed as mean ± SEM, and P < 0.05 was considered statistically significant.

Jurkat cells = system: Jurkat cells; set-up: method as in Pokhodylo et al., 2022; settings: ref Pokhodylo et al., 2022; cited from earlier work
[2] = system: HCT116 colon cancer cells; set-up: method as in Mohammed et al., 2022; settings: ref Mohammed et al., 2022; read-out: Cytotoxicity against HCT116, IC50; cited from earlier work
A549 lung cancer cells = system: A549 lung cancer cells; set-up: method as in Han et al., 2024; settings: ref Han et al., 2024; cited from earlier work
A549 cell = settings: Tummatorn's team, no reference given; read-out: A549 cell proliferation, IC50; cited from earlier work
EGFR = system: EGFR; set-up: method as in Sagam et al., 2024; settings: ref Sagam et al., 2024; read-out: EGFR inhibitory activity, IC50; cited from earlier work
A549 (lung cancer) = test: CCK-8 cell viability, A549; assay type: cell-based; settings: Homo sapiens, 72 h
Procedure: as §1, §2

MCF-7 (breast cancer) = test: CCK-8 cell viability, MCF-7; assay type: cell-based; settings: Homo sapiens, MCF7, 72 h
Procedure: as §1, §2

[3] = CCK-8 cell viability, L02; assay type: cell-based; settings: human, L02 normal liver cells

## O=c1[nH]cc(F)c(=O)[nH]1 [5-fluorouracil, reference compound]
[1]
  IC50: 21 ± 6.37 µM

## Cc1c(C(=O)Nc2ccc(SC#N)cc2)nnn1-c1ccc(C(C)C)cc1 [compound 4a]
Jurkat cells
  DNA damage: induce DNA damage
  Mitochondrial membrane potential: reduce mitochondrial membrane potential

## COc1cc(/C=C/C(=O)c2ccc(-n3cc(CN4CCN(c5cc6c(cc5F)c(=O)c(C(=O)O)cn6C5CC5)CC4)nn3)cc2)cc(OC)c1OC [compound 4j]
[2]
  IC50: 2.53 µM

## C#CCCC(=O)OC1CC2[C@@]3(C)CCC(OC(=O)CCc4cn(CC(=O)OC)nn4)C(C)(C)C3CC[C@@]2(C)[C@]2(C)CCC([C@](C)(O)CCCC(C)(C)OC)C12 (stereo partly shown) [compound 6a]
A549 lung cancer cells
  Inhibitory activity against A549: strong inhibitory activity

## Fc1ccc2c(c1)C1=Nc3ccc(Br)cc3C1CN2Cc1cn(Cc2cccc(Cl)c2)nn1 (stereo not shown) [compound 11l]
A549 cell
  IC50: 3.01 µM

## O=C(Cn1nnc(CCN2C(=O)COc3ccccc32)n1)Nc1ccc(Cl)cc1 [compound 12g]
EGFR
  IC50: 0.46 µM

## O=C1COc2cc(NC(=O)c3cccc(-c4cn(Cc5c(Cl)cccc5Cl)nn4)c3)ccc2N1 [compound c1, 3-(1-(2,6-dichlorobenzyl)-1H-1,2,3-triazol-4-yl)-N-(3-oxo-3,4-dihydro-2H-benzo[b][1,4]oxazin-7-yl)benzamide]
A549 (lung cancer)
  viability at 50 µM: 97.4 ± 3.35%
MCF-7 (breast cancer)
  viability at 50 µM: 110 ± 3.84%
[3]
  viability at 72 h, 50 µM: 84.1 ± 1.2%
[1]
  Activity against Huh-7 cells (in words): limited activity
  viability at 50 µM: 83.49 ± 0.78%

## O=C1COc2cc(NC(=O)c3cccc(-c4cn(Cc5cccc(Cl)c5)nn4)c3)ccc2N1 [compound c2, 3-(1-(3-chlorobenzyl)-1H-1,2,3-triazol-4-yl)-N-(3-oxo-3,4-dihydro-2H-benzo[b][1,4]oxazin-7-yl)benzamide]
A549 (lung cancer)
  viability at 50 µM: 95.6 ± 2.98%
MCF-7 (breast cancer)
  viability at 50 µM: 103 ± 1.63%
[3]
  viability at 72 h, 50 µM: 103 ± 2.36%
[1]
  viability at 50 µM: 17.5 ± 1.15%
  IC50: 33.4 ± 0.8 µM

## O=C1COc2cc(NC(=O)c3cccc(-c4cn(Cc5ccccc5F)nn4)c3)ccc2N1 [compound c3, 3-(1-(2-fluorobenzyl)-1H-1,2,3-triazol-4-yl)-N-(3-oxo-3,4-dihydro-2H-benzo[b][1,4]oxazin-7-yl)benzamide]
A549 (lung cancer)
  viability at 50 µM: 92.2 ± 3.87%
MCF-7 (breast cancer)
  viability at 50 µM: 108.3 ± 0.68%
[3]
  viability at 72 h, 50 µM: 101 ± 3.04%
[1]
  viability at 50 µM: 12.1 ± 0.58%
  IC50: 43.41 ± 0.08 µM

## O=C1COc2cc(NC(=O)c3cccc(-c4cn(Cc5ccc(I)cc5)nn4)c3)ccc2N1 [compound c4, 3-(1-(4-iodobenzyl)-1H-1,2,3-triazol-4-yl)-N-(3-oxo-3,4-dihydro-2H-benzo[b][1,4]oxazin-7-yl)benzamide]
A549 (lung cancer)
  viability at 50 µM: 94 ± 1.88%
MCF-7 (breast cancer)
  viability at 50 µM: 95.9 ± 2.14%
[3]
  viability at 72 h, 50 µM: 115.2 ± 0.81%
[1]
  viability at 50 µM: 21.4 ± 4.91%
  IC50: 33.21 ± 0.11 µM

## Cc1cc(C)cc(Cn2cc(-c3cccc(C(=O)Nc4ccc5c(c4)OCC(=O)N5)c3)nn2)c1 [compound c6, 3-(1-(3,5-dimethylbenzyl)-1H-1,2,3-triazol-4-yl)-N-(3-oxo-3,4-dihydro-2H-benzo[b][1,4]oxazin-7-yl)benzamide]
A549 (lung cancer)
  viability at 50 µM: 81.6 ± 5.09%
MCF-7 (breast cancer)
  viability at 50 µM: 84.8 ± 3.5%
[3]
  viability at 72 h, 50 µM: 99.7 ± 2.5%
[1]
  viability at 50 µM: 25.6 ± 1.32%
  IC50: > 50 µM

## N#Cc1ccccc1Cn1cc(-c2cccc(C(=O)Nc3ccc4c(c3)OCC(=O)N4)c2)nn1 [compound c7, 3-(1-(2-cyanobenzyl)-1H-1,2,3-triazol-4-yl)-N-(3-oxo-3,4-dihydro-2H-benzo[b][1,4]oxazin-7-yl)benzamide]
A549 (lung cancer)
  viability at 50 µM: 87.7 ± 6.4%
MCF-7 (breast cancer)
  viability at 50 µM: 89.2 ± 3.16%
[3]
  viability at 72 h, 50 µM: 101 ± 3.14%
[1]
  Activity against Huh-7 cells (in words): limited activity
  viability at 50 µM: 89.1 ± 3.02%

## O=C1COc2cc(NC(=O)c3cccc(-c4cn(Cc5cccc(C(F)(F)F)c5)nn4)c3)ccc2N1 [compound c8, N-(3-oxo-3,4-dihydro-2H-benzo[b][1,4]oxazin-7-yl)-3-(1-(3-(trifluoromethyl)benzyl)-1H-1,2,3-triazol-4-yl)benzamide]
A549 (lung cancer)
  viability at 50 µM: 86.1 ± 5.46%
MCF-7 (breast cancer)
  viability at 50 µM: 101 ± 4.5%
[3]
  viability at 72 h, 50 µM: 103 ± 3.1%
[1]
  viability at 50 µM: 13 ± 0.72%
  IC50: 38.48 ± 0.24 µM

## O=C1COc2cc(NC(=O)c3cccc(-c4cn(Cc5ccc(F)c(Cl)c5)nn4)c3)ccc2N1 [compound c9, 3-(1-(3-chloro-4-fluorobenzyl)-1H-1,2,3-triazol-4-yl)-N-(3-oxo-3,4-dihydro-2H-benzo[b][1,4]oxazin-7-yl)benzamide]
A549 (lung cancer)
  viability at 50 µM: 86.2 ± 4.4%
MCF-7 (breast cancer)
  viability at 50 µM: 110 ± 2.58%
[3]
  viability at 72 h, 50 µM: 103 ± 3.98%
[1]
  viability at 50 µM: 18.8 ± 0.56%
  IC50: 43.1 ± 2.43 µM

## O=C1COc2cc(NC(=O)c3cccc(-c4cn(Cc5c(F)cccc5F)nn4)c3)ccc2N1 [compound c10, 3-(1-(2,6-difluorobenzyl)-1H-1,2,3-triazol-4-yl)-N-(3-oxo-3,4-dihydro-2H-benzo[b][1,4]oxazin-7-yl)benzamide]
A549 (lung cancer)
  viability at 50 µM: 61.1 ± 3.58%
MCF-7 (breast cancer)
  viability at 50 µM: 81.6 ± 1.46%
[3]
  viability at 72 h, 50 µM: 68.5 ± 2.04%
[1]
  viability at 50 µM: 24.9 ± 0.39%
  IC50: > 50 µM

## N#Cc1ccc(F)cc1Cn1cc(-c2cccc(C(=O)Nc3ccc4c(c3)OCC(=O)N4)c2)nn1 [compound c11, 3-(1-(2-cyano-5-fluorobenzyl)-1H-1,2,3-triazol-4-yl)-N-(3-oxo-3,4-dihydro-2H-benzo[b][1,4]oxazin-7-yl)benzamide]
A549 (lung cancer)
  viability at 50 µM: 85.4 ± 2.84%
MCF-7 (breast cancer)
  viability at 50 µM: 92.96 ± 0.64%
[3]
  viability at 72 h, 50 µM: 111 ± 2.9%
[1]
  Activity against Huh-7 cells (in words): limited activity
  viability at 50 µM: 98 ± 1.22%

## O=C1COc2cc(NC(=O)c3cccc(-c4cn(Cc5ccccc5Br)nn4)c3)ccc2N1 [compound c12, 3-(1-(2-bromobenzyl)-1H-1,2,3-triazol-4-yl)-N-(3-oxo-3,4-dihydro-2H-benzo[b][1,4]oxazin-7-yl)benzamide]
A549 (lung cancer)
  viability at 50 µM: 87.7 ± 3.88%
MCF-7 (breast cancer)
  viability at 50 µM: 87.15 ± 0.55%
[3]
  viability at 72 h, 50 µM: 105 ± 2.71%
[1]
  Activity against Huh-7 cells (in words): limited activity
  viability at 50 µM: 86.1 ± 1.69%

## O=C1COc2cc(NC(=O)c3cccc(-c4cn(Cc5ccc(Br)cc5F)nn4)c3)ccc2N1 [compound c13, 3-(1-(4-bromo-2-fluorobenzyl)-1H-1,2,3-triazol-4-yl)-N-(3-oxo-3,4-dihydro-2H-benzo[b][1,4]oxazin-7-yl)benzamide]
A549 (lung cancer)
  viability at 50 µM: 78.3 ± 2.72%
MCF-7 (breast cancer)
  viability at 50 µM: 98.9 ± 2.03%
[3]
  viability at 72 h, 50 µM: 115 ± 1.35%
[1]
  viability at 50 µM: 17.7 ± 1.58%
  IC50: > 50 µM

## O=C1COc2cc(NC(=O)c3cccc(-c4cn(Cc5c(F)cccc5Cl)nn4)c3)ccc2N1 [compound c15, 3-(1-(2-chloro-6-fluorobenzyl)-1H-1,2,3-triazol-4-yl)-N-(3-oxo-3,4-dihydro-2H-benzo[b][1,4]oxazin-7-yl)benzamide]
A549 (lung cancer)
  viability at 50 µM: 86.5 ± 2.25%
MCF-7 (breast cancer)
  viability at 50 µM: 84.6 ± 1.32%
[3]
  viability at 72 h, 50 µM: 113.7 ± 1.08%
[1]
  Activity against Huh-7 cells (in words): limited activity
  viability at 50 µM: 75.8 ± 2.97%

## O=C1COc2cc(NC(=O)c3cccc(-c4cn(Cc5cccc(Br)c5)nn4)c3)ccc2N1 [compound c17, 3-(1-(3-bromobenzyl)-1H-1,2,3-triazol-4-yl)-N-(3-oxo-3,4-dihydro-2H-benzo[b][1,4]oxazin-7-yl)benzamide]
A549 (lung cancer)
  viability at 50 µM: 71.3 ± 2.9%
MCF-7 (breast cancer)
  viability at 50 µM: 90.41 ± 0.51%
[3]
  viability at 72 h, 50 µM: 111.7 ± 0.92%
[1]
  viability at 50 µM: 19.2 ± 1.88%
  IC50: 35.1 ± 1.84 µM

## O=C1COc2cc(NC(=O)c3cccc(-c4cn(Cc5cccc(I)c5)nn4)c3)ccc2N1 [compound c19, 3-(1-(3-iodobenzyl)-1H-1,2,3-triazol-4-yl)-N-(3-oxo-3,4-dihydro-2H-benzo[b][1,4]oxazin-7-yl)benzamide]
A549 (lung cancer)
  viability at 50 µM: 80.5 ± 3.81%
MCF-7 (breast cancer)
  viability at 50 µM: 97.2 ± 2.06%
[3]
  viability at 72 h, 50 µM: 103.4 ± 0.62%
[1]
  viability at 50 µM: 28.5 ± 3.64%
  IC50: 36.19 ± 0.09 µM

## Cc1ccccc1Cn1cc(-c2cccc(C(=O)Nc3ccc4c(c3)OCC(=O)N4)c2)nn1 [compound c20, 3-(1-(2-methylbenzyl)-1H-1,2,3-triazol-4-yl)-N-(3-oxo-3,4-dihydro-2H-benzo[b][1,4]oxazin-7-yl)benzamide]
A549 (lung cancer)
  viability at 50 µM: 97.85 ± 0.92%
MCF-7 (breast cancer)
  viability at 50 µM: 112 ± 4.59%
[3]
  viability at 72 h, 50 µM: 119.1 ± 0.57%
[1]
  viability at 50 µM: 23.6 ± 0.25%
  IC50: 45.9 ± 0.5 µM

## COc1cccc2c1C(=O)c1c(O)c3c(c(O)c1C2=O)C[C@@](O)(C(=O)CO)C[C@@H]3O[C@H]1C[C@H](N)[C@H](O)[C@H](C)O1 [doxorubicin]
[2]
  IC50: 1.22 µM
